Results on 1 compound are retold here after patent US20040115331A1, “Ximenynic acid compositions, methods for their production and uses thereof” (priority 2002, published 2004).

The test system of the assay is enteroendocrine L-cells. The assay can be described thus: Secretion of satiety inducing peptides (CCK-8, GLP-1) by enteroendocrine L-cells, radio immuno assay. The assay is classed as cell-based. The note with it: L-cells incubated 2 h at 37° C in KRB buffer; compared with equal amounts of palmitic acid. The procedure: To estimate the effects of ximenynic acid on satiety we measure the excretion of satiety inducing peptides (CCK-8 and GLP-1 L) by enteroendocrine L-cells. Two days prior to experiment 1*10^6 are cultured in 12-well culture plates. On the day of the experiment supernatants are replaced by Krebs-Ringer bicarbonate (KRB) buffer containing either control or test substances. Prior to the addition the solutions are adjusted to pH 7.2. Cells are incubated for 2 h at 37° C. Following incubation, supernatants are collected and measured by radio immuno assay for the amount of CCK-8 or GLP-1 which has been secreted.

Turning to `CCCCCC/C=C/C#CCCCCCCCC(=O)O` [ximenynic acid, octadeca-trans-11-en-9-ynoic acid], the “release of CCK-8” value is reported as “significantly greater release” and the “release of GLP-1” value is on record as “significantly greater release”.
